Reference: patent US20050197338A1, “Substituted pyrazole urea compounds for the treatment of inflammation” (priority 2003, published 2005)

molecular target: T1, human IKK-2 (rhIKK-2 homodimer) (Homo sapiens, UniProt O14920); assay: IKK-2 Resin Enzyme Assay (Human IKK-2 Enzyme Assay); format: biochemical; conditions: human IKK-2, resin enzyme assay; read-out: IC50 (μM) hIKK-2
T1 construct: FLAG (DYKDDDDKD) (C); made in house; host or cells: insect cells (baculovirus, pFastBac)
T1 sequence (O14920 1-756): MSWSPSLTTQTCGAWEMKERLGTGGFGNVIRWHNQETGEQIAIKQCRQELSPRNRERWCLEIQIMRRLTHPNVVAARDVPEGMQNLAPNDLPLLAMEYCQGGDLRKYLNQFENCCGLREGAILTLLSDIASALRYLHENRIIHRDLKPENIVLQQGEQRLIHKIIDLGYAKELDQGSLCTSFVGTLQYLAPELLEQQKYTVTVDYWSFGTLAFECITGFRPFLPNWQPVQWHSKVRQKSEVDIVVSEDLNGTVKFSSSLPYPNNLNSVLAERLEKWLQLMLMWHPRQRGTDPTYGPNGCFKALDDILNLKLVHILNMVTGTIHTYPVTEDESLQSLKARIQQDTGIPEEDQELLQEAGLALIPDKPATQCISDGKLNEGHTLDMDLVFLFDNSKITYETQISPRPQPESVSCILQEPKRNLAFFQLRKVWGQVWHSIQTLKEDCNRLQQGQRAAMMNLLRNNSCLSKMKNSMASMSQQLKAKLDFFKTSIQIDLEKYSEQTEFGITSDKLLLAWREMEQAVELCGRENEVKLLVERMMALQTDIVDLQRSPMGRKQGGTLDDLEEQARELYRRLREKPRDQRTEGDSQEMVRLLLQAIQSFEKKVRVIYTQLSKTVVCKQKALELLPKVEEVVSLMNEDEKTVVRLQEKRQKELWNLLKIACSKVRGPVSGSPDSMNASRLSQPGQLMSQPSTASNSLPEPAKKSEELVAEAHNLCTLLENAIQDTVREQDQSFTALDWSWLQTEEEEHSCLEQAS
Source text: Materials: SAM^2™96 Biotin capture plates were from Promega. Anti-FLAG affinity resin, FLAG-peptide, NP-40 (Nonidet P-40), BSA, ATP, ADP, AMP, LPS (E. coli serotype 0111:B4), and dithiothreitol were obtained from Sigma Chemicals. Antibodies specific for NEMO (IKK-γ) (FL-419), IKK-1 (H-744), IKK-2(H-470) and IκBa(C-21) were purchased from Santa Cruz Biotechnology. Ni-NTA resin was purchased from Qiagen. Peptides were purchased from American Peptide Company. Protease inhibitor cocktail tablets were from Boehringer Mannheim. Sephacryl S-300 column was from Pharmacia LKB Biotechnology. Centriprep-10 concentrators with a molecular weight cutoff of 10 kDa and membranes with molecular weight cut-off of 30 kDa were obtained from Amicon. [γ-^33P] ATP (2500 Ci/mmol) and [γ-^32P] ATP (6000 Ci/mmol) were purchased from Amersham. The other reagents used were of the highest grade commercially available.
Cloning and Expression: cDNAs of human IKK-1 and IKK-2 were amplified by reverse transcriptase-polymerase chain reaction from human placental RNA (Clonetech). hlKK-1 was subcloned into pFastBac HTa (Life Technologies) and expressed as N-terminal His6-tagged fusion protein. The hlKK-2 cDNA was amplified using a reverse oligonucleotide primer which incorporated the peptide sequence for a FLAG-epitope tag at the C-terminus of the IKK-2 coding region (DYKDDDDKD). The hlKK-2:FLAG cDNA was subcloned into the baculovirus vector pFastBac. The rhIKK-2 ([…]) mutant was constructed in the same vector used for wild type rhIKK-2 using a QuikChange™ mutagenesis kit (Stratagene). Viral stocks of each construct were used to infect insect cells grown in 40 L suspension culture. […] Cell lysates were stored at −80° C. until purification of the recombinant proteins was undertaken as described below.
Enzyme Isolation: All purification procedures were carried out at 4° C. unless otherwise noted. Buffers used are: buffer A: 20 mM Tris-HCl, pH 7.6, containing 50 mM NaCl, 20 mM NaF, 20 mM β-Glycerophosphate, 500 μM sodium orthovanadate, 2.5 mM metabisulfite, 5 mM benzamidine, 1 mM EDTA, 0.5 mM EGTA, 10% glycerol, 1 mM DTT, 1× Complete™ protease inhibitors; buffer B: same as buffer A, except 150 mM NaCl, and buffer C: same as buffer A, except 500 mM NaCl.
Isolation of rhIKK-2 homodimer: A 10-liter culture of baculovirus-expressing IKK-2 tagged with FLAG peptide was centrifuged and the cell pellet (MOI=0.1 and 1=72 h) was re-suspended in buffer A. These cells were microfluidized, and centrifuged at 100,000×g for 45 min. Supernatant was passed over a G-25 column equilibrated with Buffer A. Protein peak was collected and incubated with anti-FLAG affinity resin on a rotator overnight in buffer B. The resin was washed in batch with 10-15 bed volumes of buffer C. Washed resin was poured into a column and rhIKK-2 homodimer was eluted using 5 bed volumes of buffer B containing FLAG peptide. 5 mM DTT, 0.1% NP-40 and BSA (concentrated to 0.1% in final amount) was added to the eluted enzyme before concentrating in using an Amicon membrane with a molecular weight cut-off of 30 kDa. Enzyme was aliquoted and stored at −80° C.
IKK-2 Resin Enzyme Assay: IKK-2 kinase activity was measured using a biotinylated IκBα peptide (Gly-Leu-Lys-Lys-Glu-Arg-Leu-Leu-Asp-Asp-Arg-His-Asp-Ser32-Gly-Leu-Asp-Ser36-Met-Lys-Asp-Glu-Glu) (American Peptide Co.). 20 μL of the standard reaction mixture contained 5 μM biotinylated IκBα peptide, 0.1 μCi/reaction [γ-^33P] ATP (Amersham) (about 1×10^5 cpm), 1 μM ATP (Sigma), 1 mM DTT (Sigma), 2 mM MgCl2 (Sigma), 2 mM MnCl2 (Sigma), 10 mM NaF (Sigma), 25 mM Hepes (Sigma) buffer, pH 7.6 and 20 μL enzyme solution and 10 μL inhibitor in a final volume of 50 μL. After incubation at 25° C. for 30 min, 150 μL resin (Dowex anion-exchange resin AG1X8 200-400 mesh) in 900 mM formate, pH 3.0 was added to each well to stop the reaction. Resin was allowed to settle for 1 h and 50 μL of supernatant was removed to a Micolite-2 flat bottom plate (Dynex). […]

Compound	IC50 [µM]
NC(=O)Nc1cn(-c2ccc(-c3ccc(CN4CCOCC4)cc3)cc2)nc1C(N)=O [Example 34, 4-[(aminocarbonyl)amino]-1-[4′-(morpholin-4-ylmethyl)-1,1′-biphenyl-4-yl]-1H-pyrazole-3-carboxamide]	4.21
NC(=O)Nc1cn(-c2ccc(-c3ccc(C(=O)NCc4ccccc4)cc3)cc2)nc1C(N)=O [Example 35, 4-[(aminocarbonyl)amino]-1-{4′-[(benzylamino)carbonyl]-1,1′-biphenyl-4-yl}-1H-pyrazole-3-carboxamide]	1.33
NC(=O)Nc1cn(-c2ccc(-c3ccc(O)cc3)cc2)nc1C(N)=O [Example 36, 4-[(aminocarbonyl)amino]-1-(4′-hydroxy-1,1′-biphenyl-4-yl)-1H-pyrazole-3-carboxamide]	1.63
NC(=O)Nc1cn(-c2ccc(-c3cccc(CO)c3)cc2)nc1C(N)=O [Example 39, 4-[(aminocarbonyl)amino]-1-[3′-(hydroxymethyl)-1,1′-biphenyl-4-yl]-1H-pyrazole-3-carboxamide]	1.34
NC(=O)Nc1cn(-c2cccc(-c3ccc(F)cc3)c2)nc1C(N)=O [Example 42, 4-[(aminocarbonyl)amino]-1-(4′-fluoro-1,1′-biphenyl-3-yl)-1H-pyrazole-3-carboxamide]	9.22
NC(=O)Nc1cn(-c2cccc(-c3ccsc3)c2)nc1C(N)=O [Example 43, 4-[(aminocarbonyl)amino]-1-(3-thien-3-ylphenyl)-1H-pyrazole-3-carboxamide]	8.54
N#CCc1ccc(-c2cccc(-n3cc(NC(N)=O)c(C(N)=O)n3)c2)cc1 [Example 44, 4-[(aminocarbonyl)amino]-1-[4′-(cyanomethyl)-1,1′-biphenyl-3-yl]-1H-pyrazole-3-carboxamide]	2.08
NC(=O)Nc1cn(-c2cccc(-c3cccc(CO)c3)c2)nc1C(N)=O [Example 49, 4-[(aminocarbonyl)amino]-1-[3′-(hydroxymethyl)-1,1′-biphenyl-3-yl]-1H-pyrazole-3-carboxamide]	2.48
NC(=O)Nc1cn(-c2cccc(-c3cccc(N)c3)c2)nc1C(N)=O [Example 50, 1-(3′-amino-1,1′-biphenyl-3-yl)-4-[(aminocarbonyl)amino]-1H-pyrazole-3-carboxamide]	2.08
NCc1ccc(-c2cccc(-n3cc(NC(N)=O)c(C(N)=O)n3)c2)cc1 [Example 52, 4-[(aminocarbonyl)amino]-1-[4′-(aminomethyl)-1,1′-biphenyl-3-yl]-1H-pyrazole-3-carboxamide]	4.86
CC(=O)c1ccc(-c2cccc(-n3cc(NC(N)=O)c(C(N)=O)n3)c2)cc1 [Example 53, 1-(4′-acetyl-1,1′-biphenyl-3-yl)-4-[(aminocarbonyl)amino]-1H-pyrazole-3-carboxamide]	4.07
COc1ccc(-c2cccc(-n3cc(NC(N)=O)c(C(N)=O)n3)c2)cc1OC [Example 56, 4-[(aminocarbonyl)amino]-1-(3,4′-dimethoxy-1,1′-biphenyl-3-yl)-1H-pyrazole-3-carboxamide]	2.16
NC(=O)Nc1cn(-c2cccc(-c3ccc(C(=O)O)cc3)c2)nc1C(N)=O [Example 58, 3′-{3-(aminocarbonyl)-4-[(aminocarbonyl)amino]-1H-pyrazol-1-yl}-1,1′-biphenyl-4-carboxylic acid]	2.81
CS(=O)(=O)Nc1ccc(-c2cccc(-n3cc(NC(N)=O)c(C(N)=O)n3)c2)cc1 [Example 59, 4-[(aminocarbonyl)amino]-1-{4′-[(methylsulfonyl)amino]-1,1′-biphenyl-3-yl}-1H-pyrazole-3-carboxamide]	1.64
NC(=O)Nc1cn(-c2cccc(-c3cccc4ncccc34)c2)nc1C(N)=O [Example 60, 4-[(aminocarbonyl)amino]-1-(3-quinolin-5-ylphenyl)-1H-pyrazole-3-carboxamide]	3.75
CN(C)c1ccc(-c2cccc(-n3cc(NC(N)=O)c(C(N)=O)n3)c2)cc1 [Example 61]	6.21

These reach a lower IC50. Values come first.

IC50 [µM]	Compound
1.04	NC(=O)Nc1cn(-c2cccc(-c3ccc(CO)cc3)c2)nc1C(N)=O [Example 48, 4-[(aminocarbonyl)amino]-1-[4′-(hydroxymethyl)-1,1′-biphenyl-3-yl]-1H-pyrazole-3-carboxamide]
1.04	CC(=O)Nc1ccc(-c2cccc(-n3cc(NC(N)=O)c(C(N)=O)n3)c2)cc1 [Example 55, 1-[4′-(acetylamino)-1,1′-biphenyl-3-yl]-4-[(aminocarbonyl)amino]-1H-pyrazole-3-carboxamide]
0.83	NC(=O)Nc1cn(-c2ccc(-c3ccc(CO)cc3)cc2)nc1C(N)=O [Example 38, 4-[(aminocarbonyl)amino]-1-[4′-(hydroxymethyl)-1,1′-biphenyl-4-yl]-1H-pyrazole-3-carboxamide]
0.79	N#CCc1ccc(-c2ccc(-n3cc(NC(N)=O)c(C(N)=O)n3)cc2)cc1 [Example 37, 4-[(aminocarbonyl)amino]-1-[4′-(cyanomethyl)-1,1′-biphenyl-4-yl]-1H-pyrazole-3-carboxamide]
0.66	NC(=O)Nc1cn(-c2cccc(-c3ccc(O)cc3)c2)nc1C(N)=O [Example 47, 4-[(aminocarbonyl)amino]-1-(4′-hydroxy-1,1 ′-biphenyl-3-yl)-1H-pyrazole-3-carboxamide]
0.351	NC(=O)Nc1cn(-c2ccc(-c3ccncc3)cc2)nc1C(N)=O [Example 40, 4-[(aminocarbonyl)amino]-1-(4-pyridin-4-ylphenyl)-1H-pyrazole-3-carboxamide]
0.31	NC(=O)Nc1cn(-c2cccc(-c3ccncc3)c2)nc1C(N)=O [Example 45, 4-[(aminocarbonyl)amino]-1-(3-pyridin-4-ylphenyl)-1H-pyrazole-3-carboxamide]
0.29	NC(=O)Nc1cn(-c2cccc(-c3cn[nH]c3)c2)nc1C(N)=O [Example 57, 4-[(aminocarbonyl)amino]-1-[3-(1H-pyrazol-4-yl)phenyl]-1H-pyrazole-3-carboxamide]
